The target in one series is T1, hERG (Homo sapiens, UniProt Q12809).
T1 construct: expressed in transfected cells; host or cells: CHO cells
Briefly: electrophysiology-based hERG assay using IonWorks HT (CHO cells). Type of series: cell-based. The protocol: hERG IC50 was determined in an electrophysiology-based hERG assay using IonWorks HT (CHO cells) as described earlier.

The test system of series [1] is GPCR. Briefly: Secondary pharmacology panel, target #8.
Method: (§1) An in vitro pharmacological profiling panel was specifically designed for the detection of potential high- risk clinical adverse drug reactions. […] For enzyme and kinase assays, the results were expressed as a percent inhibition of control-specific activity obtained in the presence of the test compound. The IC50 values (concentration causing a half-maximal inhibition of control-specific activity) and Hill coefficients (nH) were determined by nonlinear regression analysis of the inhibition/concentration–response curves using Hill equation curve fitting as described earlier[37].
(§2) For radioligand binding assays, the results are expressed as % inhibition of control-specific binding obtained in the presence of the test compounds. The IC50 values (concentration causing a half-maximal inhibition of control-specific binding) and Hill coefficients (nH) were determined by nonlinear regression analysis of the competition curves generated with mean replicate values using Hill equation curve fitting. The inhibition constants (Ki) were subsequently calculated by applying the Cheng Prusoff equation[38].
(§3) For assessment of activity against these targets, compounds were tested in an 8-point
(§4) concentration response covering half-log units up to a top test concentration of 100 µM, and
(§5) an IC50 or Ki determined using either radio ligand binding assays or enzyme activity assays.
In the next series the test system is Dd2-6R F2 C5. Briefly: SYBR green growth assay, Dd2-6R F2 C5. To be noted: Plasmodium falciparum.
The test system of the next series is Pf3D7^0087/N9. Briefly: animal or person. The format is in vivo, Plasmodium falciparum. From the text:
All animal studies were ethically reviewed and carried out in accordance with European Directive 86/609/EEC and the GSK Policy on the Care, Welfare and Treatment of Animals. During this experiment, female mice were used from the batch NSGJ 01/1 (The Jackson Laboratory, USA). The therapeutic efficacy of compound 12 against Pf3D7^0087/N9 was studied using a ‘4-day test’ reported earlier. Briefly, NODscidIL2Rγ^null mice engrafted with human erythrocytes were infected with 20 × 10^6 Pf-infected erythrocytes. Infections were performed by i.v. inoculation. All mice were randomly assigned to their corresponding treatment. The treatment started at day 3 and finished at day 6 after infection. The compound was administered orally as a suspension in 0.5% w/v hydroxypropyl methylcellulose (HPMC) with 0.1% v/v Tween 80, using an oral gavage at a maximum dose volume of 20 ml kg^−1. Vehicle alone was administered in untreated mice. In all cases, parasitemia was assessed in samples from peripheral blood obtained at days 3–7 after infection. A qualitative analysis of the effect of treatment on Pf3D7^0087/N9 was assessed by microscopy and flow cytometry. Fresh samples of peripheral blood from Pf-infected mice were stained with TER-119-Phycoerythrine (marker of murine erythrocytes) and SYTO-16 (nucleic acid dye) and then analysed by flow cytometry (FACS Calibur, BD). Microscopy analysis was performed with Giemsa-stained blood smears from samples taken at days 5 and 7 (48 and 96 h after starting treatment, respectively).
PK-PD model for the metabolite (compound 9) alone. Pharmacokinetic data from the Pf/SCID model was linked to efficacy using the following equation5.
Where P [log (total no. of parasites / mouse)], Kgro (growth rate constant), Pmax (log (maximum no. of parasites / mouse)), Kkill (maximum kill rate constant), H (Hill slope), EC50 (concentration required for achieving half maximal kill rate) and Ce (concentration of the drug in the effect compartment). Percent parasitemia values were converted into total number of parasites in mouse blood assuming […] (9.23 log10) RBCs per mouse. The lower limit of quantitation for % parasitemia was 0.01% or 5.23 log10. Effect compartment was used for modelling the delay observed in efficacy at a lower dose. […]

A short description of series [2]: Blood-plasma ratio, mouse. Type of series: in vitro ADME.
The nature of series [3]: Plasma protein binding, rat.
The next series is described as follows: Caco2 permeability. The settings on record: human, Caco-2.
Series [4] relates to asexual blood stage of Pf. Briefly: Pf asexual blood stage potency (Pf IC50). Type of series: cell-based, Plasmodium falciparum. To be noted: for IC50: Plasmodium falciparum. The text has this:
The TAPs series emerged from a high-throughput screen (HTS) of 500,000 compounds from the AstraZeneca corporate library against the asexual blood stage of Pf using a high-content image-based approach. The procedure for synthesis of compounds 1-6, 10, 11 using a scheme similar to Fig. 1 is provided in Supplementary Note 1. The initial hit provided multiple diversification points for a robust lead optimization campaign. […] Compounds with 2-pyridyl modification at the 2-amino position of pyrimidine core improved potency and solubility at the cost of potent activity against hERG and acetylcholine esterase (AChE; compounds 3-6; Table 1). […] The observed hERG and AChE selectivity improvement with 7 could be attributed to the polar nature of the pyrazole group and its role in reducing the pKa of the core pyrimidine ring. […] To assess the potential for cross-resistance, representative TAPs were screened against a panel of clinical isolates and in vitro-generated mutant strains displaying varying mechanisms of resistance to antimalarial agents currently in use and under development, respectively, (Supplementary Tables 1–3).

Another series relates to PfATP4 Cpd 2. In words: [3H]-hypoxanthine incorporation assay, PfATP4 Cpd 2 resistant. The format is cell-based. The settings on record: Plasmodium falciparum. The protocol: Supplementary Table 3: Compound 9 and 12 retain their activity against Pf strains harbouring mutations to novel antimalarial agents in clinical development. Compound 9 and 12 were tested for their antiplasmodial activity against a panel of Pf strains known to harbour mutations conferring resistance to novel agents under clinical development. Parasite growth inhibition is measured using the [3H]-hypoxanthine incorporation assay. IC50s are established for each strain (n ≥2) and compared to the IC50 of Dd2 (standard pan-resistant […]

Series [5] deals with GPCR. Briefly: Secondary pharmacology panel, target #10.
Method: as §1, §2, §3, §4, §5
For another series, the system named is Ion channel. Briefly: Secondary pharmacology panel, target #5.
Series [6] deals with GPCR. In words: Secondary pharmacology panel, target #9.
Method: as §1, §2, §3, §4, §5
Setting [7] is: Target #18, hERG, read-out: Binding Ki / Enzyme IC50.

Molecules are shown by their SMILES. Like-named read-outs stand apart in the source and are kept apart here. Bounds are passed on as bounds.

Broadly, the EC50 is the concentration at which the effect is half-maximal. As usually defined, the fraction unbound is the share of the substance not bound to proteins or other matrix. Read a low fraction unbound as extensive binding. What is called Papp A→B is the apparent permeability from the apical to the basolateral side of a cell layer. High values mean fast passage, low ones slow passage.

T1 sequence (Q12809 whole entry): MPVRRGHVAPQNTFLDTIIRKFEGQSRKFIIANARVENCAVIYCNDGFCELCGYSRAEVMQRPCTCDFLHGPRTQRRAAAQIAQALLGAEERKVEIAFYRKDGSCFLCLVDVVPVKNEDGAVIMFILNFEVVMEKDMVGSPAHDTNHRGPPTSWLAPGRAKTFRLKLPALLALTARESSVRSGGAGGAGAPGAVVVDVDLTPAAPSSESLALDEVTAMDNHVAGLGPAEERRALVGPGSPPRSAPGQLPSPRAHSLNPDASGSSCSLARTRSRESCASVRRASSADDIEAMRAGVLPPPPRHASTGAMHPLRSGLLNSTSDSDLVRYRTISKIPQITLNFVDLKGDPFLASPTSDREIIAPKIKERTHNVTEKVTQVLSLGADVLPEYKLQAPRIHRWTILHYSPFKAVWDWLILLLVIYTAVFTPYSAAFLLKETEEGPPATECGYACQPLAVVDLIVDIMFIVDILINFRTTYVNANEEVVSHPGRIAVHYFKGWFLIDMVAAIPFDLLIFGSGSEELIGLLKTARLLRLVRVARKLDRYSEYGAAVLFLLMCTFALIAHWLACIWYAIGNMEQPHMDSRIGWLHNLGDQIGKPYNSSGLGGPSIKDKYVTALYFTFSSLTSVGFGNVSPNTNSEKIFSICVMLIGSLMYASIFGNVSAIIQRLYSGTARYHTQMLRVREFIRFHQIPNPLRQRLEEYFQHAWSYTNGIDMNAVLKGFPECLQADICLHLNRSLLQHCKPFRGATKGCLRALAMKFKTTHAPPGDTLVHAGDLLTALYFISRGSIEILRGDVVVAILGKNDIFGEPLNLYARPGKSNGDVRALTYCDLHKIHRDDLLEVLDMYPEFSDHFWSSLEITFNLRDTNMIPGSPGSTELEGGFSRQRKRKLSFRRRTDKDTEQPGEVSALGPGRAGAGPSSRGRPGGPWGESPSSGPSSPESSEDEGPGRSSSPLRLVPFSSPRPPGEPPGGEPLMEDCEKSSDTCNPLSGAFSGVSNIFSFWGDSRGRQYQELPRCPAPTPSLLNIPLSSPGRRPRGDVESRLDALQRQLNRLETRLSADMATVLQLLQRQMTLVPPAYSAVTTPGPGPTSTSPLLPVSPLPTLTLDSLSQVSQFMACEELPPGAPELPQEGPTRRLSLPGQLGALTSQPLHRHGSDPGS
Method for Dd2-6R F2 C5: Assays were carried out in 384-well format with three technical replicates within an assay day and biological replicates carried out on three different assay days to assign a final EC50.
The drug was then washed off and the parasites were allowed to recover in normal growth media.
Method for Ion channel: as §1, §2, §3, §4, §5

As for `Cc1nc(Nc2ncc(N3CCN(C)[C@H](C)C3)c(Nc3cc(C)n(C)n3)n2)cc(C2CC2)c1F` [compound 12, (R)-N2-(4-cyclopropyl-5-fluoro-6-methylpyridin-2-yl)-N4-(1,5-dimethyl-1H-pyrazol-3-yl)-5-(3,4-dimethylpiperazin-1-yl)pyrimidine-2,4-diamine], the IC50 on hERG (setting [7]) came to 35.9 µM; at hERG (hERG IC50), 33 µM; in the series on Dd2-6R F2 C5, 0.0701 µM; in [4], 0.009 µM; with PfATP4 Cpd 2, 0.0081 µM. On hERG (human, CHO cells that express hERG, relative to Pf potency, read-out: selectivity against hERG), the selectivity ratio was above 1000. Further, the “Binding Ki / Enzyme IC50” value with GPCR [1] was above 100 µM; in the series with GPCR [5], above 100 µM; in the series with Ion channel it was 8.58 µM; in the series with GPCR [6], 2.21 µM. Also, the “clearance of Pf parasites” value in the series with Pf3D7^0087/N9 (4 days of daily treatment, 20 mg kg^−1, oral) was “below detection limit”. Moreover, the midpoint of the response with Pf3D7^0087/N9 (Plasmodium falciparum, in Mus musculus), the EC50, lay at 0.038 µM. In addition, the ED99 in the series with Pf3D7^0087/N9 (mouse model of Pf malaria) was below 30 mg/kg. Besides, in the series with Pf3D7^0087/N9 (oral, 4-day test), the “dose at which maximum kill rate was observed” value was determined as 40 mg/kg. Moreover, in the series with Pf3D7^0087/N9 (parent, model predicted estimate), the Kkill was 0.097 h⁻¹. In addition, the “B:P ratio” value in series [2] turned out to be 1.2. This compound also registered a fraction unbound in series [3] of 0.04. This compound also showed a Papp A→B in “Caco2 permeability” of 25 ×10⁻⁶ cm/s. The “improvement in Pf potency” value in [4] (compound 12 versus compound 2) was above 60 fold.

Regarding `Cc1cc(Nc2ncc(N3CCN(C)CC3)c(N3CCCC3)n2)ccn1` [compound 2], the IC50 at hERG (setting [7]) turned out to be 85.02 µM; on hERG (hERG IC50) it was 85 µM; in series [4], 0.6 µM. The “Binding Ki / Enzyme IC50” value with GPCR [1] is listed as 4.735 µM; with GPCR [5], 8.42 µM; in the series on Ion channel it was 3.64 µM; in the series with GPCR [6], above 100 µM.

Values taken from publication PMC4389225, “Triaminopyrimidine is a fast-killing and long-acting antimalarial clinical candidate” (Nature Communications, 2015).
